# Molecular target: T1, 15-hydroxyprostaglandin dehydrogenase [NAD(+)] (Homo sapiens, UniProt P15428)
# T1 sequence (P15428 whole entry): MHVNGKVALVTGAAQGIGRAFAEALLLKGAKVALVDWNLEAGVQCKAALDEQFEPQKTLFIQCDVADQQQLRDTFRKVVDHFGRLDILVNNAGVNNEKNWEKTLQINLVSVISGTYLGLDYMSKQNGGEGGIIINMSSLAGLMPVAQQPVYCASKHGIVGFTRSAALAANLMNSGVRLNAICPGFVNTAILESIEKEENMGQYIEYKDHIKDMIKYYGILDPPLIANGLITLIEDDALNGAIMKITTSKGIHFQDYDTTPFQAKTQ
# Experiment: In Vitro Assay
row,SMILES,IC50
1,"CCCC[S+]([O-])c1cc2nc(-c3ccc(OC)cc3)cc(C(F)(F)F)n2n1 (stereo unspecified) [US11718589, Compound 3a]",0.0355 µM
2,"CCCCS(=O)(=O)c1cc2nc(-c3ccc(OC)cc3)cc(C(F)(F)F)n2n1 [US11718589, Compound 4a]",> 2.5 µM
3,"CCNC(=O)c1cc2nc(-c3ccc(OC)cc3)cc(C(F)(F)F)n2n1 [US11718589, Compound 7a]",> 2.5 µM
4,"COc1ccc(-c2cc(C(F)(F)F)n3nc(C(=O)NCCO)cc3n2)cc1 [US11718589, Compound 12a]",> 2.5 µM

# Other lines, results leading:
row,IC50,SMILES
1,0.039 µM,"CCCC[S+]([O-])c1cc2nc(-c3ccc(OC)cc3)cc(-c3ccccc3)n2n1 (stereo unspecified) [US11718589, Compound 5a]"
2,0.059 µM,"CCCC[S+]([O-])c1cc2nc(-c3ccc(OC)cc3)cc(-c3ccc(F)cc3)n2n1 (stereo unspecified) [US11718589, Compound 6a]"

# From BindingDB's records for patent US11718589 (Case Western Reserve University, 2023)
